Test results published in ChEMBL document CHEMBL5108051, “Improving the Antimicrobial Performance of Amphiphilic Cationic Antimicrobial Peptides Using Glutamic Acid Full-Scan and Positive Charge Compensation Strategies” (J Med Chem, 2022).
Activity calls are given as the source filed them. The calls are words filed in the database; no cut-off is given here. Bridge positions count the residues as written; N and C are the ends. Square brackets hold non-standard residues; d marks the D form. Peptide text beside a SMILES is read from it. * marks the point of attachment. X1 = CC[C@H](C)CCCCC(=O)*; Dab = NCC[C@H](N)C(=O)O

Experiments:
[1] = Acute toxicity in BALB/c mouse assessed as pathological changes in lung at 20 to 80 mg/kg, ip administered as single dose measured for 7 days by H and E staining method; format: organism-based; conditions: in vivo, 168 h, dose 20-80 mg/kg, time 7 day
[2] = system: Staphylococcus aureus; assay: Antibacterial activity against Staphylococcus aureus ATCC 25923 infected in BALB/C mouse pulmonary infection model assessed as increase in dilation of alveoli in lung at 10 mg/kg, ip after 24 hrs by H and E staining method; format: functional, organism-based
[3] = Acute toxicity in BALB/c mouse assessed as ruffled hairs at 10 to 20 mg/kg, ip administered as single dose measured for 7 days; format: organism-based; conditions: in vivo, 168 h, dose 10-20 mg/kg, time 7 day

Compound | Activity [1] | Activity [2] | Activity [3]
CC(C)C[C@H](NC(=O)[C@H](CC(C)C)NC(=O)[C@H](CCC(=O)O)NC(=O)[C@H](CCCCN)NC(=O)[C@H](CC(C)C)NC(=O)[C@H](CC(C)C)NC(=O)[C@H](CCCCN)NC(=O)[C@H](C)NC(=O)[C@@H](NC(=O)[C@H](CCCCN)NC(=O)[C@@H]1CCCN1C(=O)[C@H](CC(C)C)NC(=O)[C@@H](N)Cc1ccccc1)C(C)C)C(N)=O (H-FLPKVAKLLKELL-NH2) | Non-Toxic | Active | 
CC[C@H](C)CCCCC(=O)N[C@@H](CCN)C(=O)N[C@H](C(=O)N[C@@H](CCN)C(=O)N[C@H]1CCNC(=O)[C@H]([C@@H](C)O)NC(=O)[C@H](CCN)NC(=O)[C@H](CCN)NC(=O)[C@H](CC(C)C)NC(=O)[C@@H](Cc2ccccc2)NC(=O)[C@H](CCN)NC1=O)[C@@H](C)O (X1-[Dab]T[Dab][Dab][Dab][dF]L[Dab][Dab]T; lactam 4-C) |  |  | Toxic
